This passage reports EC50 and LAP4-GFP fluorescence (kMESF) results from PubChem BioAssay AID2745 (NMMLSC, 2010).

In assay [1] the test system is S. cerevisiae LAP4-GFP reporter, flow cytometry fluorescence. Kind of assay: LAP4-GFP modulation potency in yeast, dose response, cell-based, MLPCN hits, flow cytometry (AID 2745).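 Note: yeast exposed to compound for three hours at 30 degrees.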
Assay in assay [2]: as above
To be noted: S. cerevisiae LAP4-GFP reporter, flow cytometry fluorescence; at 33 µM (top of the series). A general note: In flow cytometry, cells or beads pass a laser one at a time.

The structures appear in SMILES notation. Calls of active or inactive are those of the source. The rule behind the calls is not given here.

A word on the EC50: it is the concentration needed to bring the measured effect to its halfway point. Take `CN(Cc1cnc2nc(N)nc(N)c2n1)c1ccc(C(=O)N[C@@H](CCC(=O)O)C(=O)O)cc1`: the EC50 in assay [1] is 5.18 µM. Also, the LAP4-GFP fluorescence (kMESF) in assay [2] is 10.8 kMESF (inactive).
For `CNc1nc(N)c([N+](=O)[O-])c(Nc2cccc(F)c2)n1`, the EC50 in assay [1] is 5.5 µM.
On to `O=C1ON=C(c2ccccc2)/C1=C\c1ccco1`, for which the EC50 in assay [1] was 3.67 µM.
As for `O=C(OCn1ncc(Br)c(Br)c1=O)c1c(F)cccc1F`, the EC50 in assay [1] is 16.9 µM.
Regarding `Cc1cccc(N=Nc2ccc(O)c3ncccc23)c1`, the EC50 in assay [1] is 14 µM.
As for `Cc1ccc(C(c2cc(Cl)c3cccnc3c2O)N2CCN(C)CC2)cc1` (centres undefined), in assay [1], the EC50 is 2.21 µM.
For the compound `O=C(COc1ccc(F)cc1Cl)Nc1nc(-c2ccccn2)cs1`, the EC50 in assay [1] was 2.98 µM.
Turning to `COc1cc(SSc2cc(OC)cc([N+](=O)[O-])c2N)c(N)c([N+](=O)[O-])c1`, in assay [1], the EC50 is 8.26 µM.
As to `O=[N+]([O-])c1ccc(N=Nc2c(Cl)cc(O)cc2Cl)cc1`, the concentration giving a half-maximal response (EC50) in assay [1] is 4.97 µM.
For `O=C(O)/C=C/C(=O)c1ccc2c(c1)CCc1ccccc1-2`, in assay [1], the EC50 is 1.2 µM.
The same measure, in the same setting: in the case of `Cc1cc(C2CCCCC2)n(O)c(=O)c1` it was 5.33 µM; in that of `CCCOc1ccc(C(=O)NNC(=S)NC(=O)CC)cc1`, 11.5 µM.
As for `Cc1ccc(C(=O)O)cc1N=Cc1cc(Br)cc(Br)c1O`, in assay [1], the EC50 is 4.17 µM.
Turning to `Nc1ccccc1C#CC(=O)c1ccccc1`, the EC50 in assay [1] was 8.31 µM.
Take `COc1ccccc1OCCCc1c(C)n[nH]c1C`: the EC50 in assay [1] is 20.1 µM.
`O=C(Nc1nnc(-c2ccc(Cl)cc2)o1)c1ccccc1Br`: the EC50 in assay [1] is 4.31 µM.
In the case of `N/C(Cc1ccc(Cl)cc1)=N\OC(=O)c1ccccc1`, the EC50 in assay [1] is 4.4 µM.
As to `CCCCCCCCn1sccc1=O`, the EC50 in assay [1] is 0.912 µM.
In the case of `Cc1cc(C(=O)COC(=O)c2ccc[nH]c2=O)c(C)n1-c1ccccc1F`, in assay [1], the EC50 was 0.863 µM.
In the case of `Nc1ccc(Br)c2c1C(=O)c1ccccc1C2=O`, in assay [1], the EC50 was 1.18 µM.
`CCOC(=O)COc1ccc2ccccc2c1/C=C/[N+](=O)[O-]`: the EC50 in assay [1] was 4.41 µM.
Consider `O=C1NC(=O)N(c2ccccc2)C(=O)/C1=C/c1ccc(Sc2ccccc2)o1`, for which, in assay [1], the EC50 was 11.2 µM.
For `Cc1[nH]n(-c2ccccc2)c(=O)c1C(c1ccccc1[N+](=O)[O-])C(C#N)C#N` (centres undefined), the EC50 in assay [1] was 7.67 µM.
With `N/C(Cc1ccc(Cl)c(Cl)c1)=N\OC(=O)c1cccs1`, the EC50 in assay [1] was 5.04 µM.
With `Cc1ccc(O)c(N=Nc2nccs2)c1`, the EC50 in assay [1] is 4.52 µM.
The same measure, in the same setting: in the case of `O=C(/C=C/c1ccc(F)cc1)NC(=S)NNC(=O)c1cnccn1` it was 1.54 µM; in that of `CC(Oc1cccc(Cl)c1)C(=O)Nc1nc(-c2ccccn2)cs1` (centres undefined), 25.1 µM.
On to `COc1cc(/C=C2\C(=O)N(CCC#N)N=C2C)c(Br)cc1OC(C)C`, for which, in assay [1], the EC50 was 4.16 µM.
For the compound `Cc1cccc(C(=O)NC(=S)NNC(=O)Cc2ccccc2)c1`, the EC50 in assay [1] is 10.9 µM.
With `Cc1ccsc1/C=N/Nc1ncc(Cl)cc1Cl`, the EC50 in assay [1] was 6.19 µM.
On the same count and under the same terms, in the case of `O=C(Nc1ccc(Cl)cc1)ON=C1CCCC1` it was 3.95 µM.
As to `CCOC(=O)CSC1=NC(=O)/C(=C\c2ccc(Cl)cc2)S1`, the EC50 in assay [1] was 27 µM.
In the case of `COc1ccc(/C=C/C(=O)NC(=S)NNC(=O)c2cnccn2)cc1`, in assay [1], the EC50 is 1.31 µM.
With `N=C1S/C(=C\c2ccco2)C(=O)N1c1nccs1`, the EC50 in assay [1] was 4 µM.
Regarding `CC(C)(C)C(=O)C(Cl)C(=O)Nc1ccccc1` (centres undefined), the EC50 in assay [1] is 14.6 µM.
On the same count and under the same terms, under `O=C(C#Cc1ccccc1)c1cccc([N+](=O)[O-])c1` stands 7.75 µM; under `O=c1[nH]c(-c2ccccn2)nc(C(F)(F)F)c1Br`, 2.55 µM; under `Cc1cccc(C)c1NC(=O)C(Cl)C(=O)c1ccccc1` (centres undefined), 1.45 µM.
Take `COc1ccc(N=Nc2ccc(O)c3ncccc23)cc1`: the EC50 in assay [1] was 6.43 µM.
With `O=C(c1ccc(C(=O)N2CCCc3ccccc32)s1)N1CCCc2ccccc21`, the EC50 in assay [1] is 7.77 µM.
As to `COc1cccc(N=Nc2ccc(O)c3ncccc23)c1`, the EC50 in assay [1] was 3.36 µM.
As to `O=[N+]([O-])c1cc(Cl)cc(/C=N\Nc2ccccn2)c1O`, the EC50 in assay [1] was 3.33 µM.
Take `COc1cccc(C(=O)Nc2nnc(-c3ccc(Cl)cc3)o2)c1`: the EC50 in assay [1] was 3.84 µM.
Still for that read-out and setting: in the case of `O=C(C#Cc1ccccc1)c1ccco1` it was 5.17 µM.
Regarding `O=C1ON=C(c2ccccc2)/C1=C/c1ccc(-c2ccccc2[N+](=O)[O-])o1`, the EC50 in assay [1] is 5 µM.
The same measure, in the same setting: in the case of `O=C1C=CC(=O)N1N(c1ccccc1)c1ccccc1` it was 2.7 µM; in that of `COc1ccc(/C=C2\C(=O)ON=C2c2ccccc2)cc1`, 6.86 µM; in that of `Cc1cccnc1Nc1nc(-c2ccccn2)cs1`, 3.7 µM.
For `O=[N+]([O-])c1ccc(S(=O)(=O)c2cccc(C(F)(F)F)c2)nc1`, in assay [1], the EC50 was 21.5 µM.
As to `Cc1cc(C(=O)Nc2nc(-c3ccccn3)cs2)ccc1[N+](=O)[O-]`, the EC50 in assay [1] was 6.15 µM.
For `CC(C)Oc1ccc(C(=O)/C=C2/C(=O)Nc3ccccc32)cc1`, the EC50 in assay [1] is 9.41 µM.
For `Cc1ccc2nc(Cl)c3nnnn3c2c1`, the EC50 in assay [1] was 3.84 µM.
For `O=C(CCc1ccccc1)NNC(=S)NC(=O)c1ccccc1`, the half-maximal effective concentration (EC50) in assay [1] was 32.2 µM.
For `CC1=CC(=O)C(C(C)C)=C/C1=N/OS(=O)(=O)c1ccccc1`, the EC50 in assay [1] is 9.59 µM.
For `Cc1cc(O)c(C(=O)/C=C/c2ccc(Cl)cc2)c(=O)o1`, in assay [1], the EC50 is 6.38 µM.
Take `O=C1C2C3C=CC(CO)(O3)C2C(=O)N1c1ccc(-c2ccccc2)cc1` (centres undefined): in assay [1], the EC50 was 1.53 µM.
In the case of `O=C1ON=C(c2ccccc2)/C1=C/c1ccco1`, in assay [1], the EC50 was 4.26 µM.
As for `COC(=O)/C(=C/c1c[nH]c2ccccc12)[N+](=O)[O-]`, the EC50 in assay [1] was 20.7 µM.
For the compound `Clc1cccc(CN2COc3c(cc(Cl)c4cccnc34)C2)c1`, the EC50 in assay [1] is 8.55 µM.
For `O=c1/c(=C/c2cccc3ccccc23)sc2ncnn12`, the EC50 in assay [1] is 9.22 µM.
On to `Cc1cccc(Nc2nc(-c3ccccn3)cs2)n1`, for which, in assay [1], the EC50 is 3.79 µM.
`N#Cc1nccnc1S(=O)(=O)c1cccs1`: in assay [1], the EC50 was 14 µM.
Turning to `Cc1ccc(S(=O)(=O)c2ccc([N+](=O)[O-])cn2)cc1`, the EC50 in assay [1] was 14.9 µM.
Turning to `O=[N+]([O-])c1cc(F)c2cccnc2c1O`, the concentration for a half-maximal effect (EC50) in assay [1] was 1.19 µM.
Consider `COc1ccc(C(=O)NC(=S)NNC(=O)c2cnccn2)cc1`, for which the half-maximal effective concentration (EC50) in assay [1] was 1.32 µM.
Same read-out and setting: under `COc1cccc(/C=N/Nc2ncc(C(F)(F)F)cc2Cl)c1O` stands 6.3 µM; under `CSC1=NS(=O)(=O)c2c(C)nn(C)c2S1`, 27.6 µM.
Still for that read-out and setting: in the case of `O=C(/C=C/c1ccccn1)c1cc(Br)ccc1O` it was 4.09 µM; in that of `CC1=C/C(=N\OS(=O)(=O)c2ccccc2)C(C(C)C)=CC1=O`, 5.16 µM.
In the case of `O=C(Oc1c(Cl)cc(Cl)c2cccnc12)c1ccco1`, the EC50 in assay [1] is 2.46 µM.
In the case of `Cc1c(Cc2ccccc2)c(NCCN(C)C)n2c(nc3ccccc32)c1C#N`, the EC50 in assay [1] was 29.9 µM.
On to `O=C1C=CC(=O)N1c1ccc(N2CCCCC2)cc1`, for which the EC50 in assay [1] is 1.24 µM.
Still for that read-out and setting: under `Cc1ccc(NN2C(=O)C=C(c3ccc(Cl)cc3)C2=O)cc1` stands 0.691 µM; under `CC(C)(C)n1nc(-c2ccc(Cl)cc2)c2c(N)ncnc21`, 4.82 µM; under `Cc1cc(C)c(S(=O)(=O)ON2C(=O)c3ccccc3C2=O)cc1C`, 3.12 µM.
Regarding `Oc1ccc2ccccc2c1N=Nc1nccs1`, the EC50 in assay [1] was 8.45 µM.
Still for that read-out and setting: in the case of `Cc1ccc(S(=O)(=O)ON2C(=O)c3ccccc3C2=O)c(C)c1` it was 3.89 µM; in that of `CCc1ccc(OCC(=O)NNC(=S)NC(=O)C2CC2)c(Br)c1`, 5.45 µM.
With `O=C(Nc1nc(-c2ccccn2)cs1)C1COc2ccccc2O1` (centres undefined), the EC50 in assay [1] is 3.9 µM.
Still for that read-out and setting: under `COc1cccc(/C=N/Nc2ccc([N+](=O)[O-])cn2)c1O` stands 5.73 µM; under `Cn1c(=O)c(C(=O)NNC(=O)c2ccc(Br)cc2)c(O)c2ccccc21`, 0.762 µM.
Regarding `CCOC(=O)/C(=C\c1cn(C)c2ccccc12)[N+](=O)[O-]`, the EC50 in assay [1] was 2.24 µM.
Turning to `CC(C)(C)c1nnc(N/N=C/c2cc(Br)ccc2O)n(N)c1=O`, in assay [1], the EC50 was 12.2 µM.
